{"source": "patent US20140023611A1", "about": "(priority 2010, published 2014)", "data": [{"biological_target": "T1, rat NaP2b (SLC34A2) (Rattus norvegicus, UniProt Q9JJ09)", "T1 construct": "host or cells: HEK293", "T1 sequence (Q9JJ09 1-695)": "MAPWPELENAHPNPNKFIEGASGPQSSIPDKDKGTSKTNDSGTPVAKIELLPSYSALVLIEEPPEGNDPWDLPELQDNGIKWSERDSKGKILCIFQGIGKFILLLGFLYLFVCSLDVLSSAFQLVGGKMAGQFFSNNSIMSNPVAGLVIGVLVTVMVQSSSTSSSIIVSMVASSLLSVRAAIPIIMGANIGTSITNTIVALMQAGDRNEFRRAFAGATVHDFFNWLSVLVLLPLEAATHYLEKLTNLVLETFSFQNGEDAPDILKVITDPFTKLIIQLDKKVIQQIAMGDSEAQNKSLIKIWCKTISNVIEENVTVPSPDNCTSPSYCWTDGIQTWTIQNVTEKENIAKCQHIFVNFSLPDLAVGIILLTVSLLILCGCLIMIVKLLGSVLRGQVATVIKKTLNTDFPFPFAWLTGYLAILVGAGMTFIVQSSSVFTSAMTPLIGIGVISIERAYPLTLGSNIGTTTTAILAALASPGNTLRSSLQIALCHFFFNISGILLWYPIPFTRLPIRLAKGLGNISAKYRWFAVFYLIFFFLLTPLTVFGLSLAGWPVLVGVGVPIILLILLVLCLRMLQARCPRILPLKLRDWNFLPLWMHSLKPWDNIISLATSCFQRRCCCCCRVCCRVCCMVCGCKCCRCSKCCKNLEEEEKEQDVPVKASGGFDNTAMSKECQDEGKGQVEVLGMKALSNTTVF", "assay": "Inhibition of NaP2b-mediated Pi (33P) uptake in transfected HEK293 cells, rat NaP2b", "assay_type": "cell-based", "conditions": "33P Pi uptake, 0.1 mM phosphate, value given as pIC50 range", "method": "HEK293 cells were obtained from the American Type Culture collection and propagated per their instructions. […] The sequence of the human protein was mutated to insert a threonine after residue 37, and to introduce a N39D mutation.\nCells were seeded into 96-well plates at 25,000 cells/well and cultured overnight. Lipofectamine 2000 (Invitrogen) was used to introduce the NaP2b cDNA, and the cells were allowed to approach confluence during a second overnight incubation. […] Each compound was tested at twelve concentrations ranging from 0.1 nM to 30 uM. Assays were run in duplicate.\nCells were lysed by addition of 20 μL 0.1% Tween 80 followed by 100 μL scintillation fluid, and counted using a TopCount (Perkin Elmer).\npIC50 (the negative log of the IC50) values of the test compounds were calculated using GraphPad Prism.", "units": {"IC50": "µM"}, "values": [{"smiles": "O=C(O)CCSCc1cccc(C(=O)Nc2ccc(N3CCCCC3)cc2-c2cc(C(=O)NCc3ccccc3C(F)(F)F)ccn2)c1", "note": "[Example 1.48]", "IC50": "1 to 7.94"}, {"smiles": "Cc1ccc(CNC(=O)c2ccnc(-c3cc(N4CCCCC4)ccc3NC(=O)c3cccc(CSCCC(=O)O)c3)c2)cc1C", "note": "[Example 1.49]", "IC50": "1 to 7.94"}, {"smiles": "Cc1cccc(CNc2cc(-c3cc(N4CCCCC4)ccc3NC(=O)c3cccc(CSCCC(=O)O)c3)ncn2)c1", "note": "[Example 3.2, 3-((3-((4-(Piperidin-1-yl)-2-(6-((3-methylbenzyl)amino)pyrimidin-4-yl)phenyl)carbamoyl)benzyl)thio)propanoic acid]", "IC50": "10 to 31.6"}, {"smiles": "O=C(O)CCSCc1cccc(C(=O)Nc2ccc(N3CCCCC3)cc2-c2cc(NCCc3cccc(C(F)(F)F)c3)ncn2)c1", "note": "[Example 3.3, 3-((3-((4-(Piperidin-1-yl)-2-(6-((3-(trifluoromethyl)phenethyl)amino)pyrimidin-4-yl)phenyl)carbamoyl)benzyl)thio)propanoic acid]", "IC50": "10 to 31.6"}, {"smiles": "Cc1ccc(CNc2cc(-c3cc(N4CCCCC4)ccc3NC(=O)c3cccc(CSCCC(=O)O)c3)ncn2)cc1C", "note": "[Example 3.4, 3-((3-((2-(6-((3,4-Dimethylbenzyl)amino)pyrimidin-4-yl)-4-(piperidin-1-yl)phenyl)carbamoyl)benzyl)thio)propanoic acid]", "IC50": "10 to 31.6"}, {"smiles": "O=C(O)CCSCc1cccc(C(=O)Nc2ccc(N3CCCCC3)cc2-c2cc(NCc3ccc(Cl)c(C(F)(F)F)c3)ncn2)c1", "note": "[Example 3.5, 3-((3-((2-(6-((4-Chloro-3-(trifluoromethyl)benzyl)amino)pyrimidin-4-yl)-4-(piperidin-1-yl)phenyl)carbamoyl)benzyl)thio)propanoic acid]", "IC50": "1 to 7.94"}, {"smiles": "O=C(O)CCSCc1cccc(C(=O)Nc2ccc(N3CCCCC3)cc2-c2cc(OCc3cccc(C(F)(F)F)c3)ncn2)c1", "note": "[Example 3.8, 3-((3-((4-(Piperidin-1-yl)-2-(6-((3-(trifluoromethyl)benzyl)oxy)pyrimidin-4-yl)phenyl)carbamoyl)benzyl)thio)propanoic acid]", "IC50": "10 to 31.6"}, {"smiles": "O=C(O)CCSCc1cccc(C(=O)Nc2ccc(N3CCCCC3)cc2-c2cc(Oc3cccc(C(F)(F)F)c3)ncn2)c1", "note": "[Example 3.9, 3-((3-((4-(Piperidin-1-yl)-2-(6-(3-(trifluoromethyl)phenoxy)pyrimidin-4-yl)phenyl)carbamoyl)benzyl)thio)propanoic acid]", "IC50": "10 to 31.6"}, {"smiles": "CCN(CC)CCN(C)C(=O)c1cccc(C(=O)Nc2ccc(N3CCCCC3)cc2-c2cc(C(=O)NCc3cccc(C(F)(F)F)c3)ccn2)c1", "note": "[Example 4.1, N1-(2-(Diethylamino)ethyl)-N1-methyl-N3-(4-(piperidin-1-yl)-2-(4-((3-(trifluoromethyl)benzyl)carbamoyl)pyridin-2-yl)phenyl)isophthalamide]", "IC50": "10 to 31.6"}, {"smiles": "COCCNC(=O)CCN(C)C(=O)c1cccc(C(=O)Nc2ccc(N3CCCCC3)cc2-c2cc(C(=O)NCc3cccc(C(F)(F)F)c3)ccn2)c1", "note": "[Example 4.2, N1-(2-(4-((3-(Trifluoromethyl)benzyl)carbamoyl)pyridin-2-yl)-4-(piperidin-1-yl)phenyl)-N3-(3-(2-methoxyethylamino)-3-oxopropyl)-N3-methylisophthalamide]", "IC50": "1 to 7.94"}, {"smiles": "CN(CCOCCO)C(=O)c1cccc(C(=O)Nc2ccc(N3CCCCC3)cc2-c2cc(C(=O)NCc3cccc(C(F)(F)F)c3)ccn2)c1", "note": "[Example 4.3, N1-(2-(2-Hydroxyethoxy)ethyl)-N1-methyl-N3-(4-(piperidin-1-yl)-2-(4-((3-(trifluoromethyl)benzyl)carbamoyl)pyridin-2-yl)phenyl)isophthalamide]", "IC50": "1 to 7.94"}, {"smiles": "CN(CCN1CCN(C(=O)OC(C)(C)C)CC1)C(=O)c1cccc(C(=O)Nc2ccc(N3CCCCC3)cc2-c2cc(C(=O)NCc3cccc(C(F)(F)F)c3)ccn2)c1", "note": "[Example 4.5, Tert-butyl 4-(2-(N-methyl-3-((4-(piperidin-1-yl)-2-(4-((3-(trifluoromethyl)benzyl)carbamoyl)pyridin-2-yl)phenyl)carbamoyl)benzamido)ethyl)piperazine-1-carboxylate]", "IC50": "1 to 7.94"}, {"smiles": "CC(=O)N1CCN(C(=O)c2cccc(C(=O)Nc3ccc(N4CCCCC4)cc3-c3cc(C(=O)NCc4cccc(C(F)(F)F)c4)ccn3)c2)CC1", "note": "[Example 4.6, 2-(2-(3-(4-Acetylpiperazine-1-carbonyl)benzamido)-5-(piperidin-1-yl)phenyl)-N-(3-(trifluoromethyl)benzyl)isonicotinamide]", "IC50": "10 to 31.6"}, {"smiles": "CC(=O)NC1CCN(C(=O)c2cccc(C(=O)Nc3ccc(N4CCCCC4)cc3-c3cc(C(=O)NCc4cccc(C(F)(F)F)c4)ccn3)c2)CC1", "note": "[Example 4.7, 2-(2-(3-(4-Acetamidopiperidine-1-carbonyl)benzamido)-5-(piperidin-1-yl)phenyl)-N-(3-(trifluoromethyl)benzyl)isonicotinamide]", "IC50": "10 to 31.6"}, {"smiles": "CCN(CCN1CCOCC1)C(=O)c1cccc(C(=O)Nc2ccc(N3CCCCC3)cc2-c2cc(C(=O)NCc3cccc(C(F)(F)F)c3)ccn2)c1", "note": "[Example 4.8, N1-Ethyl-N1-(2-morpholinoethyl)-N3-(4-(piperidin-1-yl)-2-(4-((3-(trifluoromethyl)benzyl)carbamoyl)pyridin-2-yl)phenyl)isophthalamide]", "IC50": "1 to 7.94"}, {"smiles": "CC(=O)N[C@H]1CCN(C(=O)c2cccc(C(=O)Nc3ccc(N4CCCCC4)cc3-c3cc(C(=O)NCc4cccc(C(F)(F)F)c4)ccn3)c2)C1", "note": "[Example 4.9, (S)-2-(2-(3-(3-Acetamidopyrrolidine-1-carbonyl)benzamido)-5-(piperidin-1-yl)phenyl)-N-(3-(trifluoromethyl)benzyl)isonicotinamide]", "IC50": "10 to 31.6"}, {"smiles": "O=C(NCc1cccc(C(F)(F)F)c1)c1ccnc(-c2cc(N3CCCCC3)ccc2NC(=O)c2cccc(C(=O)N(CCN3CCOCC3)C3CC3)c2)c1", "note": "[Example 4.11, N1-Cyclopropyl-N1-(2-morpholinoethyl)-N3-(4-(piperidin-1-yl)-2-(4-((3-(trifluoromethyl)benzyl)carbamoyl)pyridin-2-yl)phenyl)isophthalamide]", "IC50": "1 to 7.94"}, {"smiles": "O=C(NCc1cccc(C(F)(F)F)c1)c1ccnc(-c2cc(N3CCCCC3)ccc2NC(=O)c2cccc(C(=O)N(CCN3CCOCC3)Cc3ccccc3)c2)c1", "note": "[Example 4.12, N1-Benzyl-N1-(2-morpholinoethyl)-N3-(4-(piperidin-1-yl)-2-(4-((3-(trifluoromethyl)benzyl)carbamoyl)pyridin-2-yl)phenyl)isophthalamide]", "IC50": "1 to 7.94"}, {"smiles": "CC(=O)N1CCCN(C(=O)c2cccc(C(=O)Nc3ccc(N4CCCCC4)cc3-c3cc(C(=O)NCc4cccc(C(F)(F)F)c4)ccn3)c2)CC1", "note": "[Example 4.13, 2-(2-(3-(4-Acetyl-1,4-diazepane-1-carbonyl)benzamido)-5-(piperidin-1-yl)phenyl)-N-(3-(trifluoromethyl)benzyl)isonicotinamide]", "IC50": "1 to 7.94"}, {"smiles": "COCCNC(=O)[C@H]1CCCN(C(=O)c2cccc(C(=O)Nc3ccc(N4CCCCC4)cc3-c3cc(C(=O)NCc4cccc(C(F)(F)F)c4)ccn3)c2)C1", "note": "[Example 4.14, (S)-2-(2-(3-(3-((2-Methoxyethyl)carbamoyl)piperidine-1-carbonyl)benzamido)-5-(piperidin-1-yl)phenyl)-N-(3-(trifluoromethyl)benzyl)isonicotinamide]", "IC50": "1 to 7.94"}, {"smiles": "COCCNC(=O)[C@@H]1CCCN(C(=O)c2cccc(C(=O)Nc3ccc(N4CCCCC4)cc3-c3cc(C(=O)NCc4cccc(C(F)(F)F)c4)ccn3)c2)C1", "note": "[Example 4.15, (R)-2-(2-(3-(3-((2-Methoxyethyl)carbamoyl)piperidine-1-carbonyl)benzamido)-5-(piperidin-1-yl)phenyl)-N-(3-(trifluoromethyl)benzyl)isonicotinamide]", "IC50": "1 to 7.94"}, {"smiles": "O=C(CCSCc1cccc(C(=O)Nc2ccc(N3CCCCC3)cc2-c2cc(C(=O)NCc3cccc(C(F)(F)F)c3)ccn2)c1)NCCN1CCOCC1", "note": "[Example 4.16, 2-(2-(3-(((3-((2-Morpholinoethyl)amino)-3-oxopropyl)thio)methyl)benzamido)-5-(piperidin-1-yl)phenyl)-N-(3-(trifluoromethyl)benzyl)isonicotinamide]", "IC50": "10 to 31.6"}, {"smiles": "COCCNC(=O)CCSCc1cccc(C(=O)Nc2ccc(N3CCCCC3)cc2-c2cc(C(=O)NCc3cccc(C(F)(F)F)c3)ccn2)c1", "note": "[Example 4.17, 2-(2-(3-(((3-((2-Methoxyethyl)amino)-3-oxopropyl)thio)methyl)benzamido)-5-(piperidin-1-yl)phenyl)-N-(3-(trifluoromethyl)benzyl)isonicotinamide]", "IC50": "10 to 31.6"}]}]}
